Read-outs that look alike come from different tables or passages of the source.
Legend:
[1] = 24 months of treatment; patients; cited from earlier work
[2] = glaucoma patients; cited from earlier work
[3] = system: DOI-induced hypolocomotion in rats; experiment: Attenuation of DOI-induced hypolocomotion in rats; type: in vivo, rat; conditions: 50 μmol/kg p.o. 60 min before DOI 0.3 mg/kg s.c.
Method: In this example, compounds of the invention, such as Compound 1 and Compound 26, were tested for inverse agonist activity by determining whether these compounds could attenuate DOI-induced hypolocomotion in rats in a novel environment. DOI is a potent 5HT2A/2C receptor agonist that crosses the blood-brain barrier.
Male Sprague-Dawley rats (Harlan, San Diego, Calif.) weighing between 200-300 g were used for all tests. Rats were housed three to four per cage. These rats were naïve to experimental testing and drug treatment. Rats were handled one to three days before testing to acclimate them to experimental manipulation. Rats were fasted overnight prior to testing.
(R)-DOI HCl (C11H16INO2·HCl) was obtained from Sigma-Aldrich, and was dissolved in 0.9% saline. Compounds of the invention were synthesized at Arena Pharmaceuticals Inc. and were dissolved in 100% PEG400. […]
The “Motor Monitor” (Hamilton-Kinder, Poway, Calif.) was used for all activity measurement. This apparatus recorded rears using infrared photobeams. […]
In determining the effects of compounds of the invention on DOI-induced hypoactivity, animals were first injected with vehicle or the compound of the invention (50 μmol/kg) in their home cages. […] 10 min after DOI administration, animals were placed into the activity apparatus and rearing activity was measured for 10 minutes.
Results (total rears over 10 minutes) were analyzed by t-test. […]

5HT2A receptor = 5HT2A receptor (Macaca mulatta (Rhesus macaque), UniProt P50128); experiment: Serotonin 5-HT2A receptor occupancy study in monkey (PET, 18F-altanserin); type: in vivo; conditions: iv
[4] = Plasma drug concentration in the PET occupancy study; type: in vivo, rhesus monkey; conditions: 0.5 mg/kg i.v.; after 8 hours
Method: The monkey was anesthetized by using ketamine (10 mg/kg) and was maintained using 0.7 to 1.25% isoflurane. Typically, the monkey had two i.v. lines, one on each arm. One i.v. line was used to administer the radioligand, while the other line was used to draw blood samples for pharmacokinetic data of the radioligand as well as the cold drugs. Generally, rapid blood samples were taken as the radioligand is administered which then taper out by the end of the scan. A volume of approximately 1 ml of blood was taken per time point, which was spun down, and a portion of the plasma was counted for radioactivity in the blood.
The results of both an 8 hour and 24 hour study are shown. The test compound was administered via i.v. infusion in 5.0 ml of 80% PEG400. For the 8 hour study, venous blood samples were drawn at 5 minutes post Compound 1 and 15 minutes before PET scan. For the 24 hour study, venous blood samples were drawn at 5 minutes post Compound 1 and 10 minutes before PET scan.

male Wistar rats = experiment: Effect on delta power, sleep and wakefulness in rats (EEG/EMG); type: in vivo, rat; conditions: oral gavage
Method: In this example, the effect of Compounds of the Invention, such as Compound 1 and Compound 26, on sleep and wakefulness was compared to the reference drug zolpidem. Drugs were administered during the middle of the light period (inactivity period).
Briefly, four compounds of the invention, including Compound 1 (1.0 mg/kg) and Compound 26 (1.4 mg/kg), were tested for their effects on sleep parameters and were compared to zolpidem (5.0 mg/kg, Sigma, St. Louis, Mo.) and vehicle control (80% Tween 80, Sigma, St. Louis, Mo.). A repeated measures design was employed in which each rat was to receive seven separate dosings via oral gavage. The first and seventh dosings were vehicle and the second through sixth were the test compounds and zolpidem given in counter-balanced order. Since all dosings were administered while the rats were connected to the recording apparatus, 60% CO2/40% O2 gas was employed for light sedation during the oral gavage process. Rats appeared fully recovered within 60 seconds following the procedure. A minimum of three days elapsed between dosings. […] Dosing typically occurred between 13:15 and 13:45 using a 24 hour notation. All dosing solutions were made fresh on the day of dosing. Following each dosing, animals were continuously recorded until lights out the following day (˜30 hours).
Animals were housed in a temperature controlled recording room under a 12/12 light/dark cycle (lights on at 7:00 am) and had food and water available ad libitum. Room temperature (24+2° C.), humidity (50+20% relative humidity) and lighting conditions were monitored continuously via computer. Drugs were administered via oral gavage as described above, with a minimum of three days between dosings. Animals were inspected daily in accordance with NIH guidelines. […]
EEG and EMG data were scored visually in 10 second epochs for waking (W), REMS, NREMS. Scored data were analyzed and expressed as time spent in each state per half hour. Sleep bout length and number of bouts for each state were calculated in hourly bins. […]

Compound	urinary albumin excretion level [1]	IOP [2]	DOI-induced hypolocomotion (total rears over 10 minutes) [3]	receptor occupancy at 0.5 mg/kg (5HT2A receptor; read-out: 5HT2A receptor occupancy, 0.5 mg/kg i.v., 8 hours following drug administration, cortical regions)	receptor occupancy at 0.5 mg/kg (5HT2A receptor; read-out: 5HT2A receptor occupancy, 0.5 mg/kg i.v., 24 hours post-injection)	test drug concentrations in plasma samples [4]	NREMS bout length (male Wistar rats; 1.0 mg/kg, second hour)	REMS bout length (male Wistar rats; Compound 1 1.0 mg/kg, Compound 26 1.4 mg/kg, fourth hour)	delta power during NREMS (male Wistar rats; Compound 1 1.0 mg/kg, Compound 26 1.4 mg/kg, second hour following dosing (15:00), vs vehicle)
COc1cccc(CCc2ccccc2OCC(CN(C)C)OC(=O)CCC(=O)O)c1 (stereo not drawn) [sarpogrelate]	significantly reduced	significantly lower							
COc1ccc(NC(=O)Nc2ccc(Cl)cc2)cc1-c1c(Br)cnn1C [Compound 1, 1-[3-(4-Bromo-2-methyl-2H-pyrazol-3-yl)-4-methoxy-phenyl]-3-(4-Chloro-phenyl)-urea]			attenuated DOI-induced hypolocomotion	~90%	~80%	no measurable test drug concentrations	significantly increased	significantly increased	significantly increased
